Consider 21 compounds from patent US12479927B2, “Compounds comprising cleavable linker and uses thereof” (priority 2017, dated 2025).

The structures appear in SMILES notation. Like-named read-outs stand apart in the source and are kept apart here.

For one data set, the system named is KB cancer cells. The experiment in a line: cells. Type of data set: cell-based. The procedure:
KB cancer cells were collected and seeded in 24-well plates at a density of 30,000 cells per well in 2 mL of medium, and cultured for 24 hours. Then, the serial dilutions of compound C-1 obtained in Example 108 were treated from 30 nM to 0.0096 nM, the serial dilutions of compound C-2 obtained in Example 109 were treated from 1000 nM to 0.32 nM, serial dilutions of the compound C-3 obtained in Example 110 and the compound C-7 obtained in Example 114 were treated from 25 nM to 0.0016 nM, and serial dilutions of the drug MMAF-OMe were treated from 10 nM to 0.0097 nM. The serial dilutions of compounds C-5 and C-6 obtained in Example 112 and Example 113 were treated from 100 nM to 0.0001 nM, and the serial dilutions of drug seco-DUBA were treated from 100 nM to 0.001 nM. Serial dilutions of the compounds C-4 and C-9 obtained in Example 111 and Example 116 were treated from 1000 nM to 0.001 nM, and the serial dilutions of drug CBI dimer were treated by from 10 nM to 0.00001 nM. Serial dilutions of the compound C-8 obtained in Example 115 and the drug CBI-indole were treated from 100 nM to 0.0001 nM. After 72 hours, 96 hours, or 144 hours of incubation, 0.2 mL of 3-(4,5-dimethylthiazol-2-yl)-2,5-diphenyltetrazolium bromide (MTT) dye, dissolved in PBS buffer solution (5 mg/mL), was added to each well of the plates. The formazans formed by reduction of the MTT dye by mitochondrial oxidoreductases in the living cells were dissolved in DMSO, and measured using the absorbance at 550 nm.

Data set [1] addresses Escherichia coli β-galactosidase (Escherichia coli, UniProt P00722). The experiment in a line: in vitro. As to conditions: recombinant enzyme, pH 7.4. The procedure: Method 1. Escherichia coli β-galactosidase
MPS used as a standard material was dissolved in PBS buffer solution to make 500 uM solution. […] This was followed by the addition of enzyme solution (14 μL of 1 mg/mL). When comparing with human β-galactosidase, 21 μL of enzyme solution (1 mg/mL) was added to achieve the same molar concentration, and the compound of the present invention and MPS each having an amount of 140 μL and […] of the buffer solution (pH 7.4) were mixed. The resulting reaction mixture was incubated at 37° C. Escherichia coli β-galactosidase enzyme (Sigma G4155) was used in the reaction mixture. The enzyme reaction solution was aliquoted at 0 min before the reaction and at a predetermined time after the reaction, respectively, wherein each aliquot was 70 μL. Then, the remaining compound of the present invention or MPS, and a material liberated by the enzyme reaction were quantitatively analyzed by HPLC.

Setting [2] is: MTT, 72 hours, 96 hours, or 144 hours of incubation, read-out: KB cell IC50.

Chain of Escherichia coli β-galactosidase (P00722 2-1024): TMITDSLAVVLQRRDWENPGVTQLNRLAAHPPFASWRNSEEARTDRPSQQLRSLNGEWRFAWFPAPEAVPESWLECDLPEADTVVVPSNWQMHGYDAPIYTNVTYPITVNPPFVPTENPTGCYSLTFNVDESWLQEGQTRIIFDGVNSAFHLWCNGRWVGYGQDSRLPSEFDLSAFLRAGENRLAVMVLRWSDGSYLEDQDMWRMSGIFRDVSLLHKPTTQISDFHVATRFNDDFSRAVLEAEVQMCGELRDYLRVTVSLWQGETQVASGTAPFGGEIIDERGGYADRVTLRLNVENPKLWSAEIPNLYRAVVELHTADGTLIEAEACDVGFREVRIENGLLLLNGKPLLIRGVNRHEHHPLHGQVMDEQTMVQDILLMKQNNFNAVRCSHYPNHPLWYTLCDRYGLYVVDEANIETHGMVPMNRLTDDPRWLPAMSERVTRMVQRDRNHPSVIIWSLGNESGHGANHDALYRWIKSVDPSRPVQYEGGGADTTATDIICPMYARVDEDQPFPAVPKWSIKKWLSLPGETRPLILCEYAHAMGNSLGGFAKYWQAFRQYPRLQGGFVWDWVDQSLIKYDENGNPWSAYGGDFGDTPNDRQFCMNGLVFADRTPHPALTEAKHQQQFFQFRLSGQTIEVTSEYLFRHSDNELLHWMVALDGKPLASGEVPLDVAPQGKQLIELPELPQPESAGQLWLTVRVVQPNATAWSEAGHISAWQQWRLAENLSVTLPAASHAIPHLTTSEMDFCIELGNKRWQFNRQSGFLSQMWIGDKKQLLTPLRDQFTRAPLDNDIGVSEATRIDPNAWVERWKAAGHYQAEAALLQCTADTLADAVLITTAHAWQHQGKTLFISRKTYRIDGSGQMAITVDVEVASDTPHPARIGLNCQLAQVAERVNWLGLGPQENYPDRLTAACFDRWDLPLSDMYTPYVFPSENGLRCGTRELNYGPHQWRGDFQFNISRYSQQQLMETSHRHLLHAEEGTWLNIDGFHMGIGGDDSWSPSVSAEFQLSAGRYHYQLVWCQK

As for `COc1cc2[nH]c(C(=O)N3C[C@@H](CCl)c4c3cc(O)c3cccc(C)c43)cc2cc1OCCN(C)C` [CBI-indole, reference compound], the IC50 in the data set with KB cancer cells (Homo sapiens, KB, read-out: KB cell IC50(nM)) was determined as 0.07 nM.
On to `CC(C)(C)OC(=O)NC(Cc1ccc(OS(=O)(=O)Oc2cc(C(=O)NCCOCCOCCOCCN=[N+]=[N-])ccc2O[C@@H]2O[C@H](CO)[C@H](O)[C@H](O)[C@H]2O)cc1)C(=O)O` (stereo partly drawn) [Compound A-2], for which the half-life at 100 μM in data set [1] was determined as 3.71 ± 0.22 min.
Same read-out and setting: under `Nc1nc(OCc2ccc(OS(=O)(=O)Oc3ccccc3OC3O[C@H](CO)[C@H](O)[C@H](O)[C@H]3O)cc2)c2ncn([C@@H]3O[C@H](CO)C(O)[C@@H]3O)c2n1` (stereo partly drawn) [Compound A-4] stands below 5 min.
On the same count and under the same terms, under `CC(C)(C)OC(=O)NC(Cc1ccc(OS(=O)(=O)Oc2cc(CCC(=O)NCCOCCOCCOCCN=[N+]=[N-])ccc2OC2O[C@H](CO)[C@H](O)[C@H](O)[C@H]2O)cc1)C(=O)O` (stereo partly drawn) [Compound A-6] stands 4.6 ± 1.72 min.
Same read-out and setting: under `O=C(OCCc1cccnc1)OCc1ccc(OS(=O)(=O)Oc2ccccc2O[C@@H]2O[C@H](CO)[C@H](O)[C@H](O)[C@H]2O)cc1` [Compound A-9] stands below 5 min.
For `O=C(Cc1cccnc1)OCc1ccc(OS(=O)(=O)Oc2ccccc2O[C@@H]2O[C@H](CO)[C@H](O)[C@H](O)[C@H]2O)cc1` [Compound A-10], the half-life at 100 μM in data set [1] is below 5 min.
The same measure, in the same setting: under `CC(C)(C)OC(=O)NC(Cc1ccc(OS(=O)(=O)Oc2cc3ccccc3cc2O[C@@H]2O[C@H](CO)[C@H](O)[C@H](O)[C@H]2O)cc1)C(=O)O` (stereo partly drawn) [Compound A-12] stands below 5 min.
With `Cc1cn([C@H]2CC(O)[C@@H](CO)O2)c(=O)nc1OCc1ccc(OS(=O)(=O)Oc2ccccc2O[C@@H]2O[C@H](CO)[C@H](O)[C@H](O)[C@H]2O)cc1` (stereo partly drawn) [Compound A-13], the half-life at 100 μM in data set [1] is below 5 min.
On the same count and under the same terms, the figure for `CC(OCN(CCN(C)C)C(=O)OCc1ccc(OS(=O)(=O)Oc2ccccc2OC2O[C@H](CO)[C@H](O)[C@H](O)[C@H]2O)cc1)c1ccccc1` (stereo partly drawn) [Compound A-17] is below 1 min; for `CC(C)(C)OC(=O)NCCN(CC(=O)O)C(=O)Cn1cnc2c(OCc3ccc(OS(=O)(=O)Oc4ccccc4OC4O[C@H](CO)[C@H](O)[C@H](O)[C@H]4O)cc3)nc(N)nc21` (stereo partly drawn) [Compound A-18] it is below 5 min.
Same read-out and setting: under `CCC(C)[C@H]([C@H](CC(=O)N1CCC[C@@H]1[C@@H](OC)[C@H](C)C(=O)NC(Cc1ccccc1)C(=O)O)OC)N(C)C(=O)[C@H](NC(=O)[C@@H](C(C)C)N(C)C(=O)OCc1ccc(OS(=O)(=O)Oc2cc(C(=O)NCCOCCOCCOCCN=[N+]=[N-])ccc2O[C@H]2O[C@H](CO)[C@H](O)[C@H](O)[C@H]2O)cc1)C(C)C` (stereo partly drawn) [Compound B-3] stands below 10 min; under `C[C@]12CC[C@@H]3c4ccc(OS(=O)(=O)Oc5cc(C(=O)NCCOCCOCCOCCN=[N+]=[N-])ccc5O[C@@H]5O[C@H](CO)[C@H](O)[C@H](O)[C@H]5O)cc4CC[C@H]3[C@@H]1CC[C@@H]2O` [Compound B-6], below 5 min.
The same measure, in the same setting: the figure for `COc1ccc(/C=C\c2cc(OC)c(OC)c(OC)c2)cc1OS(=O)(=O)Oc1cc(C(=O)NCCOCCOCCOCCN=[N+]=[N-])ccc1O[C@@H]1O[C@H](CO)[C@H](O)[C@H](O)[C@H]1O` [Compound B-7] is below 5 min; for `CSCC[C@H](NC(=O)[C@H](Cc1ccccc1)NC(=O)CNC(=O)CNC(=O)[C@@H](N)Cc1ccc(OS(=O)(=O)Oc2ccccc2OC2O[C@H](CO)[C@H](O)[C@H](O)[C@H]2O)cc1)C(=O)O` (stereo partly drawn) [Compound B-9] it is below 5 min.
Regarding `CC/C(=C(\c1ccccc1)c1ccc(OCC[N+](C)(C)Cc2c(OC)cc(OS(=O)(=O)Oc3cc(C(=O)NCCOCCOCCOCCN=[N+]=[N-])ccc3OC3O[C@H](CO)[C@H](O)[C@H](O)[C@H]3O)cc2OC)cc1)c1ccccc1` (stereo partly drawn) [Compound B-11], the half-life at 100 μM in data set [1] is below 5 min.
Turning to `CCc1c2c(nc3ccc(OS(=O)(=O)Oc4cc(C(=O)NCCOCCOCCOCCn5cc(CCC(=O)N[C@H](CCCCN)C(=O)NCCOCCOCCNC(=O)CC[C@@H](NC(=O)c6ccc(NCc7cnc8nc(N)[nH]c(=O)c8n7)cc6)C(=O)O)nn5)ccc4O[C@@H]4O[C@H](CO)[C@H](O)[C@H](O)[C@H]4O)cc13)-c1cc3c(c(=O)n1C2)COC(=O)[C@]3(O)CC` [Compound C-2], the IC50 with KB cancer cells (setting [2]) was above 500 nM.
For the compound `NCCCC[C@@H](NC(=O)CCc1cn(CCOCCOCCOCCNC(=O)c2ccc(O[C@@H]3O[C@H](CO)[C@H](O)[C@H](O)[C@H]3O)c(OS(=O)(=O)Oc3cc4c(c5ccccc35)[C@H](CCl)CN4C(=O)CCCC(=O)N3C[C@@H](CCl)c4c3cc(O[C@@H]3O[C@H](CO)[C@H](O)[C@H](O)[C@H]3O)c3ccccc43)c2)nn1)C(=O)NCCOCCOCCNC(=O)CC[C@@H](NC(=O)c1ccc(NCc2cnc3nc(N)[nH]c(=O)c3n2)cc1)C(=O)O` [Compound C-4], the IC50 with KB cancer cells (setting [2]) was 0.02 nM.
`NCCCC[C@@H](NC(=O)CCc1cn(CCOCCOCCOCCNC(=O)c2ccc(O[C@@H]3O[C@H](CO)[C@H](O)[C@H](O)[C@H]3O)c(OS(=O)(=O)Oc3cc4c(c5ccccc35)[C@H](CCl)CN4C(=O)c3cn4cc(NC(=O)c5ccc(O)cc5)ccc4n3)c2)nn1)C(=O)NCCOCCOCCNC(=O)CC[C@@H](NC(=O)c1ccc(NCc2cnc3nc(N)[nH]c(=O)c3n2)cc1)C(=O)O` [Compound C-6]: the IC50 with KB cancer cells (setting [2]) is 0.45 nM.
Still for that read-out and setting: the figure for `COc1cc2[nH]c(C(=O)N3C[C@@H](CCl)c4c3cc(OS(=O)(=O)Oc3cc(C(=O)NCCOCCOCCOCCn5cc(CCC(=O)N[C@H](CCCCN)C(=O)NCCOCCOCCNC(=O)CC[C@@H](NC(=O)c6ccc(NCc7cnc8nc(N)[nH]c(=O)c8n7)cc6)C(=O)O)nn5)ccc3O[C@@H]3O[C@H](CO)[C@H](O)[C@H](O)[C@H]3O)c3cccc(C)c43)cc2cc1OCCN(C)C` [Compound C-8] is 0.12 nM; for `CC(=O)Oc1cc2c(c3ccccc13)[C@H](CCl)CN2C(=O)CCCC(=O)N1C[C@@H](CCl)c2c1cc(OS(=O)(=O)Oc1cc(C(=O)NCCOCCOCCOCCn3cc(CCC(=O)N[C@H](CCCCN)C(=O)NCCOCCOCCNC(=O)CC[C@@H](NC(=O)c4ccc(NCc5cnc6nc(N)[nH]c(=O)c6n5)cc4)C(=O)O)nn3)ccc1O[C@@H]1O[C@H](CO)[C@H](O)[C@H](O)[C@H]1O)c1ccccc21` [Compound C-9] it is 0.1 nM.
In the case of `Cc1cccc2c(O)cc3c(c12)[C@H](CCl)CN3C(=O)c1cn2cc(NC(=O)c3ccc(O)cc3)ccc2n1` [Seco-DUBA, reference compound], the IC50 in the data set on KB cancer cells (Homo sapiens, KB, MTT, 72 hours, 96 hours, or 144 hours of incubation, read-out: KB cell IC50) is 0.18 nM.
